1 compound from US20060052455A1, “Composition for preventing treating the xepression of clinical symptom in disease caused by mitochondrial dysfunction” (priority 2002, published 2006) can be followed below.

In the experiment the test system is MELAS patients. The experiment can be described thus: Intravenous drip infusion of L-arginine monohydrochloride to MELAS patients. Type of experiment: in vivo, human. The source says: This treatment by intravenous injection is, however, not convenient for MELAS patients, because, in order to receive intravenous injection in the acute stage of cerebral apoplexy-like episode, they have to go to the hospital to receive such intravenous injection immediately after the episode has occurred. […] The scintillating scotoma refers to an abnormal visual field which is one of warning symptoms of a cerebral apoplexy-like episode, and when it occurs, a riffle-like light suddenly appears in a part of the visual field and usually lasts for 5 to 30 minutes. Moreover, administration of a large amount of L-arginine monohydrochloride into a blood vessel may presumably cause side effects such as drop in blood pressure, hydrochloric acidosis, or the like.

In the case of `Cl.N=C(N)NCCC[C@H](N)C(=O)O` [L-arginine monohydrochloride], for the setting “intravenous drip infusion, three patients”, the “treatment of the acute stage of cerebral apoplexy-like episode due to MELAS” value is “effective”. Moreover, the “improvement of warning symptoms of the episode, particularly scintillating scotoma” value (intravenous injection) is reported as “cannot improve”.
